We go through 22 compounds from patent US20220354825A1, “PHARMACEUTICAL COMPOSITION FOR PREVENTION OR TREATMENT OF INFLAMMATORY DISEASES COMPRISING NAPHTHOQUINONE DERIVATIVE” (LMITO THERAPEUTICS INC., priority 2019, published 2022).

One test deals with NQO1 (Homo sapiens, UniProt P15559). Put plainly: In vitro NQO1 enzyme activity assay (cytochrome C reduction). As to conditions: NQO1 2 ng. Type of test: biochemical. The protocol:
In order to evaluate the enzymatic activities of compounds on NQO1, the experiments were performed as follows:
A compound to measure NQO1 enzyme activity was dissolved in DMSO to prepare a 10 mM stock solution, which was then diluted with DMSO to prepare a working solution at a concentration of 250 μM. For an enzyme reaction solution, 50 μL of 1.54 mM cytochrome C solution was added to 900 μL of 50 mM Tris-HCl (pH 7.5) solution containing 0.14% BSA, and then the prepared working solution at 250 μM was added. After adding 20 μL of 100 ng/ml NQO1 protein, […] solution was added so as to adjust the total volume to 1 mL, and then the change of absorbance was measured at 550 nm for 10 minutes. The change of absorbance was measured at 550 nm for 10 minutes using 1 mL cuvette. The reaction rate was observed through the increase in absorbance as cytochrome C was reduced at 550 nm for 10 minutes, to obtain an absorbance value, and the activity for NQO1 was measured as the reduced amount of cytochrome C (nmol reduced cytochrome C/min/μg NQO1 protein).
Absorption coefficient of Cytochrome C: 21.1 (μmol/mL)-1 cm^−1
Equipment=Cary 100 UV-Vis Spectrophotometer

Test [1] has as its system DSS-induced acute colitis mouse model. Kind of test: Efficacy in ulcerative colitis mouse model (DSS-induced acute colitis). Type of test: in vivo, C57BL/6 female mouse. The following applies: 5% DSS for 6 days. The protocol:
DSS-induced acute colitis mouse model was prepared using 6-week-old C57BL/6 female mouse in the following method from Opal S M et al., Jama., 309(11):1154-1162(2013) and Hotchkiss R S et al., Journal of immunology., 176(9):5471-5477(2006).
The clinical score in colitis were measured daily for body weight, rectal bleeding, total bleeding loss, and fecal concentration during colitis induction.
For immunohistochemistry of tissue section, mouse spleen, lung and colon were fixed using 10% formalin and embedded in paraffin. Paraffin sections were cut to a thickness of 4 μm, and H&E(hematoxylin and eosin) staining was performed. The histopathological score was measured in accordance with the criteria described in Osuchowski M F, et al., Journal of Immunology, 177(3):1967-74(2006); and Liu W, et al., Cell Research, 25(6): 691-706(2015).
The sandwich ELISAs and MPO assay were performed according to conventional methods in this field. TNF-α, IL-6, IL-1β, IL-18 ELISA(sandwich ELISAs) were performed using BD OptEIA ELISA Kit and MPO assay was performed using MPO Activity assay kit(ab105136) of Abcam company.
The data obtained from independent experiment (means±SD) was analyzed by using two-tailed Student's t-test. The differences were considered significant in p<0.05. For survival comparison, the results were graphically described and analyzed according to kaplan-Meier survival analysis, that is, the product-limit method, using log-rank(Mantel-Cox) tests (Prism, version 5.0, GraphPad Software).

For test [2], the system named is primary bone marrow-derived macrophages (BMDMs). Kind of test: NAD+/NADH measurement in macrophages after LPS/ATP. Format: cell-based, C57BL/6 mouse. As to conditions: LPS/ATP + 1, 5, 10 μM compound. As to the method:
The primary bone marrow-derived macrophages (BMDMs) isolated from C57BL/6 mouse were incubated in DMEM medium involving macrophage colony-stimulating factor (M-CSF; R&D Systems, 416-ML) during 3 to 5 days. NAD^+ production and NAD^+/NADH ratio was measured in isolated BMDMs through using NAD/NADH Assay Kit(ab65348) supplied by Abcam company. All assays were performed according to the manufacturer's product manual.
FIGS. 6 to 10 show NAD^+/NADH ratio changes in the macrophage when treated with compounds 6, 16, 17, and 27 respectively (in order from left in the figure: Untreatment, LPS/ATP, LPS/ATP+1 μM compound, LPS/ATP+5 μM compound, and LPS/ATP+10 μM).

The test system is the same in test [3]. Kind of test: Mitochondrial reactive oxygen species measurement (MitoSox, FACS). The following applies: LPS/ATP + 1, 5, 10 μM compound. Format: cell-based, C57BL/6 mouse. The protocol: The primary bone marrow-derived macrophages (BMDMs) isolated from C57BL/6 mouse were incubated in DMEM medium involving macrophage colony-stimulating factor (M-CSF; R&D Systems, 416-ML) during 3 to 5 days. Isolated BMDMs were stained by 1 μM MitoSox (Molecular Probes M36008) for 15 min. After washing the cells into PBS and collecting the cells, mitochondrial reactive oxygen species was measured by FACS.
FIGS. 11 and 12 show mitochondrial reactive oxygen species changes in the macrophage when treated with compounds 6 and 27, respectively (in order from left in the figure: Untreatment, LPS/ATP, LPS/ATP+1 μM compound, LPS/ATP+5 μM compound, and LPS/ATP+10 μM compound).

Test [4] shares this test system. Kind of test: ATP measurement in LPS-activated macrophages. Type of test: cell-based, C57BL/6 mouse. As to conditions: LPS + 1, 5, 10 μM compound. As to the method: The primary bone marrow-derived macrophages (BMDMs) isolated from C57BL/6 mouse were incubated in DMEM medium involving macrophage colony-stimulating factor (M-CSF; R&D Systems, 416-ML) during 3 to 5 days. ATP content in the cell was measured through using ATP colorimetric/fluorometric kit after activation of macrophages by treatment of 100 ng/mL LPS in DMEM medium including […]. All assays were performed according to the manufacturer's product manual.
FIGS. 13 to 17 show the measurement of ATP amounts in the macrophage when treated with Compounds 6, 16, 17, 22 and 27 respectively (in order from left in the figure: Untreatment, LPS/ATP, LPS/ATP+1 μM compound, LPS/ATP+5 μM compound, and LPS/ATP+10 μM compound).

The test system is the same in test [5]. Put plainly: OCR (oxygen consumption rate) measurement, Seahorse XF24. Format: cell-based, C57BL/6 mouse. The following applies: macrophages after treatment of LPS and ATP. The protocol: The primary bone marrow-derived macrophages (BMDMs) isolated from C57BL/6 mouse were incubated in DMEM medium involving macrophage colony-stimulating factor (M-CSF; R&D Systems, 416-ML) during 3 to 5 days. OCR was measured using Seahorse XF24 Extracellular Flux Analyzer in isolated bone marrow-derived macrophages.

The test system is the same in test [6]. Kind of test: NAD+ measurement in macrophages after LPS/ATP. As to conditions: LPS/ATP + 1, 5, 10 μM compound. Type of test: cell-based, C57BL/6 mouse. The protocol:
The primary bone marrow-derived macrophages (BMDMs) isolated from C57BL/6 mouse were incubated in DMEM medium involving macrophage colony-stimulating factor (M-CSF; R&D Systems, 416-ML) during 3 to 5 days. NAD^+ production and NAD^+/NADH ratio were measured in isolated BMDMs through using NAD/NADH Assay Kit(ab65348) supplied by Abcam company. All assays were performed according to the manufacturer's product manual.
FIGS. 1 to 5 show NAD^+ changes in the macrophage when treated with compounds 6, 16, 17, 22 and 27 respectively (in order from left in the figure: Untreatment, LPS/ATP, LPS/ATP+1 μM compound, LPS/ATP+5 μM compound, and LPS/ATP+10 μM compound).

Setting [7] is: colon tissue homogenate, treated during 20 days.
The mark [8] stands for this setting: treated during 10 days, vs non-treated mouse.

NQO1, sequence (P15559 whole entry, species assumed): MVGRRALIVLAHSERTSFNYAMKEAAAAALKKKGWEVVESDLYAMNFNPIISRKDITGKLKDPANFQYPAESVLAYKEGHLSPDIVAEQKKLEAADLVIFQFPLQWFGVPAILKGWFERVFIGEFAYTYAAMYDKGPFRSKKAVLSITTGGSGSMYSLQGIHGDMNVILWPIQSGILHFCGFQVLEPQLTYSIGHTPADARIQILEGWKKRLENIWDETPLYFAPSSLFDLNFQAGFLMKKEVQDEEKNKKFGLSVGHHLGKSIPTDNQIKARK

As to `O=C1C(=O)c2c(n(-c3ccccc3)[nH]c2=O)-c2ccccc21` [Compound 1], on NQO1 (Compound 5 μM), the “NQO1 Activity” value was 180 nmol of reduced Cytochrome C/min/μg NQO1 Protein.
For `CC(C)Oc1nn(-c2ccccc2)c2c1C(=O)C(=O)c1ccccc1-2` [Compound 2], the “NQO1 Activity” value on NQO1 (Compound 0.2 μM) is given as 3531 nmol of reduced Cytochrome C/min/μg NQO1 Protein.
For the compound `CC(C)n1c(=O)c2c(n1C)-c1ccccc1C(=O)C2=O` [Compound 3], the “NQO1 Activity” value at NQO1 (Compound 5 μM) was 3066 nmol of reduced Cytochrome C/min/μg NQO1 Protein.
Regarding `Cn1c(=O)c2c(n1-c1ccccc1)-c1ccccc1C(=O)C2=O` [Compound 5], the “NQO1 Activity” value at NQO1 (Compound 5 μM) was 2602 nmol of reduced Cytochrome C/min/μg NQO1 Protein.
In the case of `COc1nn(-c2ccccc2)c2c1C(=O)C(=O)c1ccccc1-2` [Compound 6], in test [1] (setting [7]), the MPO activity entry was “decreased”; the “cytokine expressions (TNF-α, IL-6, IL-1β and IL-18, ELISA)” value is recorded as “decreased”; the “expressions of sirtuin 1 and sirtuin 7” value is on record as “significantly increased”. Moreover, in test [1] (treated during 7 days, vs non-treated colon tissue), the “histological finding of colon tissue (immunohistochemistry, histological score, H&E)” value was “significantly improved than non-treated colon tissue”. Moreover, in test [1] (setting [8]), the “colitis clinic scores (body weight, stool consistency, bleeding combined)” value is given as “significantly ameliorated compared with non-treated mouse” and the “degree of body weight loss” value was “significantly slower than non-treated mouse”. In addition, the survival rates result in test [1] (treated during 20 days, vs non-treated mouse) is “higher than non-treated mouse”. Besides, the “NAD+/NADH ratio” value in test [2] is “increased in dose-dependent manner”. In addition, the “mitochondrial reactive oxygen species amounts” value in test [3] was “decreased in dose-dependent manner”. Moreover, the ATP amounts result in test [4] is “increased in dose-dependent manner”. For the same compound, the “NQO1 Activity” value on NQO1 (Compound 0.2 μM) is 3782 nmol of reduced Cytochrome C/min/μg NQO1 Protein. In addition, at NQO1 (Compound 5 μM), the “NQO1 Activity” value is 7706 nmol of reduced Cytochrome C/min/μg NQO1 Protein. Besides, the “overall mitochondrial OCR” value in test [5] is recorded as “increased”. In addition, the “NAD+ production” value in test [6] is “increased in dose-dependent manner”.
With `CCn1c(=O)c2c(n1-c1ccccc1)-c1ccccc1C(=O)C2=O` [Compound 7], the “NQO1 Activity” value on NQO1 (Compound 0.2 μM) is listed as 2246 nmol of reduced Cytochrome C/min/μg NQO1 Protein.
In the case of `CCOc1nn(-c2ccccc2)c2c1C(=O)C(=O)c1ccccc1-2` [Compound 8], on NQO1 (Compound 0.2 μM), the “NQO1 Activity” value is given as 3768 nmol of reduced Cytochrome C/min/μg NQO1 Protein.
Same read-out and setting: in the case of `CC(C)Cn1c(=O)c2c(n1-c1ccccc1)-c1ccccc1C(=O)C2=O` [Compound 9] it was 2474 nmol of reduced Cytochrome C/min/μg NQO1 Protein.
Still for that read-out and setting: then `CC(C)COc1nn(-c2ccccc2)c2c1C(=O)C(=O)c1ccccc1-2` [Compound 10], with 3455 nmol of reduced Cytochrome C/min/μg NQO1 Protein; and `CC(C)CCn1c(=O)c2c(n1-c1ccccc1)-c1ccccc1C(=O)C2=O` [Compound 11], with 2839 nmol of reduced Cytochrome C/min/μg NQO1 Protein.
Still for that read-out and setting: then `CC(C)CCOc1nn(-c2ccccc2)c2c1C(=O)C(=O)c1ccccc1-2` [Compound 12], with 2981 nmol of reduced Cytochrome C/min/μg NQO1 Protein; and `CC(C)n1c(=O)c2c(n1-c1ccccc1)-c1ccccc1C(=O)C2=O` [Compound 13], with 2137 nmol of reduced Cytochrome C/min/μg NQO1 Protein.
As to `CC(C)n1c2c(c(=O)n1C)C(=O)C(=O)c1ccccc1-2` [Compound 16], in test [2], the “NAD+/NADH ratio” value is listed as “increased in dose-dependent manner”. Besides, on NQO1 (Compound 0.2 μM), the “NQO1 Activity” value is 4441 nmol of reduced Cytochrome C/min/μg NQO1 Protein. Besides, the “NAD+ production” value in test [6] is recorded as “increased in dose-dependent manner”.
Take `COc1nn(C(C)C)c2c1C(=O)C(=O)c1ccccc1-2` [Compound 17]: the “NAD+/NADH ratio” value in test [2] is “increased in dose-dependent manner”. For the same compound, the “NQO1 Activity” value at NQO1 (Compound 0.2 μM) is 5843 nmol of reduced Cytochrome C/min/μg NQO1 Protein. For the same compound, in test [6], the “NAD+ production” value is reported as “increased in dose-dependent manner”.
In the case of `COc1nn(-c2ccc(C(F)(F)F)cc2)c2c1C(=O)C(=O)c1ccccc1-2` [Compound 18], the “NQO1 Activity” value at NQO1 (Compound 0.2 μM) is recorded as 4232 nmol of reduced Cytochrome C/min/μg NQO1 Protein.
Regarding `COc1nn(-c2ccc(F)cc2)c2c1C(=O)C(=O)c1ccccc1-2` [Compound 19], the “NQO1 Activity” value at NQO1 (Compound 0.2 μM) was 4303 nmol of reduced Cytochrome C/min/μg NQO1 Protein.
Same read-out and setting: then `Cn1c2c(c(=O)n1-c1ccccc1)C(=O)C(=O)c1ccccc1-2` [Compound 20], with 568 nmol of reduced Cytochrome C/min/μg NQO1 Protein; and `Cn1c(=O)c2c(n1-c1ccccc1)-c1ccc(F)cc1C(=O)C2=O` [Compound 21], with 1426 nmol of reduced Cytochrome C/min/μg NQO1 Protein.
In the case of `COc1nn(-c2ccccc2)c2c1C(=O)C(=O)c1cc(F)ccc1-2` [Compound 22], the “NAD+/NADH ratio” value in test [2] was “increased in dose-dependent manner”. The “NQO1 Activity” value at NQO1 (Compound 0.2 μM) is 6978 nmol of reduced Cytochrome C/min/μg NQO1 Protein. Moreover, the “NAD+ production” value in test [6] is “increased in dose-dependent manner”.
Regarding `COc1cn(-c2ccccc2)c2c1C(=O)C(=O)c1cc([N+](=O)[O-])ccc1-2` [Compound 23], the “NQO1 Activity” value on NQO1 (Compound 0.2 μM) was 456 nmol of reduced Cytochrome C/min/μg NQO1 Protein.
Same read-out and setting: in the case of `COc1nn(-c2ccccc2)c2c1C(=O)C(=O)c1cc(N)ccc1-2` [Compound 24] it was 4336 nmol of reduced Cytochrome C/min/μg NQO1 Protein; in that of `COc1cn(-c2ccccc2)c2c1C(=O)C(=O)c1cc(Br)ccc1-2` [Compound 25], 1676 nmol of reduced Cytochrome C/min/μg NQO1 Protein.
